Source: US9101638B2, “Boronic acid derivatives and therapeutic uses thereof” (Rempex Pharmaceuticals, Inc., priority 2013, dated 2015)
Read-outs that look alike come from different tables or passages of the source.

Columns and labels:
KP1004 (K-2) = test: Potentiation of aztreonam, strain KP1004; format: cell-based; settings: minimum BLI concentration inhibiting growth with 4 μg/mL aztreonam
PAM1032/KPC-2 = test: Biapenem potentiation in PAM1032/KPC-2 (MexAB-OprM overexpressed); format: cell-based, Pseudomonas aeruginosa
Method: (§1) Efflux of BLIs from Pseudomonas aeruginosa by the MexAB-OprM efflux pump was also evaluated. […] Due to expression of KPC-2 both strains became resistant to biapenem. […] Potency of BLIs to potentiate biapenem in these strains was determined. […] The ratio of MPC64 values for each BLI in PAM1032/KPC-2 (efflux proficient) and PAM1154/KPC-2 (efflux deficient) was determined to generate the Efflux Index (EI).

ec308 (SHV-5) [1] = test: Potentiation of aztreonam, strain ec308; format: cell-based; settings: minimum BLI concentration inhibiting growth with 4 μg/mL aztreonam
PAM1154/KPC-2 = test: Biapenem potentiation in PAM1154/KPC-2 (MexAB-OprM lacking); format: cell-based, Pseudomonas aeruginosa
Method: as §1

ec308 (SHV-5) [2] = test: Potentiation of tigemonam, strain ec308; format: cell-based; settings: minimum BLI concentration inhibiting growth with 4 μg/mL tigemonam
KPC-2 = KPC-2 (Klebsiella pneumoniae, UniProt Q9F663); test: Inhibition of nitrocefin cleavage by purified KPC-2; format: biochemical; settings: nitrocefin reporter substrate, purified enzyme; read-out: Ki (KPC-2, NCF)
Method: (§2) Purified enzymes were mixed with various concentrations of inhibitors in reaction buffer and incubated for 10 min at room temperature. Nitrocefin was added and substrate cleavage profiles were recorded at 490 nm every 10 sec for 10 min.

EC1010 (CMY-6) [3] = format: cell-based
CTX-M-14 = CTX-M-14 (Escherichia coli, UniProt Q9L5C7); test: Inhibition of nitrocefin cleavage by purified CTX-M-14; format: biochemical; settings: nitrocefin reporter substrate, purified enzyme; read-out: Ki (CTX-M-14, NCF)
Method: as §2

KP1009 (CTX-M-15) [4] = test: Potentiation of tigemonam, strain KP1009; settings: minimum BLI concentration inhibiting growth with 4 μg/mL tigemonam
KP1005 (CTX-M-14) = test: Potentiation of aztreonam, strain KP1005; format: cell-based
ec302 (TEM-10) [5] = test: Potentiation of aztreonam, strain ec302; format: cell-based
OXA-48 = OXA-48 (Klebsiella pneumoniae, UniProt Q6XEC0); test: Inhibition of nitrocefin cleavage by purified OXA-48; format: biochemical; settings: nitrocefin reporter substrate, purified enzyme; read-out: Ki (OXA-48, NCF)
Method: as §2

ECL1002 = test: Potentiation of aztreonam, strain ECL1002; format: cell-based; settings: minimum BLI concentration inhibiting growth with 4 μg/mL aztreonam
SHV-12 = SHV-12 (Klebsiella pneumoniae, UniProt P0AD64, E235K/G234S/L31Q); test: Inhibition of nitrocefin cleavage by purified SHV-12; format: biochemical; settings: nitrocefin reporter substrate, purified enzyme; read-out: Ki (SHV-12, NCF)
Method: as §2

KP1009 (CTX-M-15) [6] = test: Potentiation of aztreonam, strain KP1009; format: cell-based
EC1010 (CMY-6) [7] = test: Potentiation of aztreonam, strain EC1010; format: cell-based
ec302 (TEM-10) [8] = test: Potentiation of tigemonam, strain ec302; format: cell-based
CathepsinG = biological target: T1, CathepsinG (Homo sapiens, UniProt P08311); test: Serine protease inhibition: cathepsin G; format: biochemical, mammalian; settings: Table 8B
T1 construct: purchased EMD Millipore 219373
T1 sequence (P08311 21-244): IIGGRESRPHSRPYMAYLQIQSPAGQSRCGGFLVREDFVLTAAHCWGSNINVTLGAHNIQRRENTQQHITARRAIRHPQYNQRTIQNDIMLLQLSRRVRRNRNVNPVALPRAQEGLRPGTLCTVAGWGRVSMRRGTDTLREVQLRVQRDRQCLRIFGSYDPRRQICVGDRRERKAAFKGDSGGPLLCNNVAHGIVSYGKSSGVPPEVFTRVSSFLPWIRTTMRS
Method: (§3) The effect of selected BLIs on the enzymatic activity of some common mammalian serine proteases was evaluated.
(§4) 50 μl of the diluted enzyme was mixed with 50 μl of inhibitor at various concentrations and 50 μl of corresponding buffer (Table 7). Reaction mixtures were incubated for 10 min at 37° C. Subsequently, 50 μl of corresponding substrate (Table 7) was added and absorbance or fluorescence was monitored for 30 min on SpectraMax M2 plate reader (Molecular Devices). 4-(2-Aminoethyl)benzenesulfonyl fluoride hydrochloride (AEBSF) and leupeptin were used as positive controls. Rates of reaction were calculated and presented relative to “no treatment” control.

CathepsinA = biological target: T2, CathepsinA (Homo sapiens, UniProt P10619); test: Serine protease inhibition: cathepsin A; format: biochemical, mammalian; settings: Table 8B; read-out: IC50 CathepsinA
T2 construct: purchased R&D Systems 1049-SE
T2 sequence (P10619 29-480): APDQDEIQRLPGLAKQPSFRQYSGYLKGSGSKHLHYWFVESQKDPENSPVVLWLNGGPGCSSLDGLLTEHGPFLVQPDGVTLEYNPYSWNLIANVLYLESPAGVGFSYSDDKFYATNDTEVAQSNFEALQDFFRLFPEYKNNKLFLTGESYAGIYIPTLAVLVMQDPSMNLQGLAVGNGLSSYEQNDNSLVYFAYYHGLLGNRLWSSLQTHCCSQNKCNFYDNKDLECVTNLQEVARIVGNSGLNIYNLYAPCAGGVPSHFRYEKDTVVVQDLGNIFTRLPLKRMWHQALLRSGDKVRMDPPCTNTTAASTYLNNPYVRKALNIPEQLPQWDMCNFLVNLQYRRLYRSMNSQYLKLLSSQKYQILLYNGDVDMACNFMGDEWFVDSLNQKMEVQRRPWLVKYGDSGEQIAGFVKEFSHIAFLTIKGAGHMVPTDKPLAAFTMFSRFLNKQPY
Method: as §3, §4

[9] = BLI potency to decrease biapenem MIC 64-fold, 32 to 0.5 μg/ml, efflux proficient strain

Sequence of SHV-12 (P0AD64 22-286 L31Q/G234S/E235K): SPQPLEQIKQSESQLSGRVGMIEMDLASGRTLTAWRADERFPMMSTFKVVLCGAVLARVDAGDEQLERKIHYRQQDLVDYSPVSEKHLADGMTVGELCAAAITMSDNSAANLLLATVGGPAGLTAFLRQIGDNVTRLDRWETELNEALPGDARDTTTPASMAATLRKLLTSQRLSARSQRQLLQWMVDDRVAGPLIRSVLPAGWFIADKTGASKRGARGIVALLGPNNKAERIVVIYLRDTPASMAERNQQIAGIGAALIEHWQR
Sequence of CTX-M-14 (Q9L5C7 entry or part of it): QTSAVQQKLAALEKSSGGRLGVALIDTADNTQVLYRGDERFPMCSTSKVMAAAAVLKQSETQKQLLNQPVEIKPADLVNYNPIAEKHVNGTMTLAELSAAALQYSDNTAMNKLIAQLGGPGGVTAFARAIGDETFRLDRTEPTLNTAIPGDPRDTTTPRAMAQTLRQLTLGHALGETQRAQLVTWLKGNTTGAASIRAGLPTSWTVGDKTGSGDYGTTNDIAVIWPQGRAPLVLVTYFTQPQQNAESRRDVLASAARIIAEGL
Sequence of KPC-2 (Q9F663 25-293, looked up, species assumed): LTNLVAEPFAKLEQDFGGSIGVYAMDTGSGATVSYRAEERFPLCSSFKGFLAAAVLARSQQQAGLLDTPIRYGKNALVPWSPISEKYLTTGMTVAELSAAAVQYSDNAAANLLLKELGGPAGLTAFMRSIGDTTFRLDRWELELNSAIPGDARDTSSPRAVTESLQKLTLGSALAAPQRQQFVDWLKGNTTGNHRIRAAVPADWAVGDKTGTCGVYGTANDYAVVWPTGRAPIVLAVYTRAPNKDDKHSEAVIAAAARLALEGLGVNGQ
Sequence of OXA-48 (Q6XEC0 23-265 limits assumed): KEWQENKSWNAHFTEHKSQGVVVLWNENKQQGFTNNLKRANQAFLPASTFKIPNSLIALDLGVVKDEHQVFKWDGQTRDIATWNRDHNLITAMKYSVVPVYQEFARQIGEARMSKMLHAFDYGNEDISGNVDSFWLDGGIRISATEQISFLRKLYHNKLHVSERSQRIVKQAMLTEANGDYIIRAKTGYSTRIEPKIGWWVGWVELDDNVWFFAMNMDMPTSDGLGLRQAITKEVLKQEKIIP

Structure (SMILES) | AZT MPC4 K-2 KP1004 (KP1004 (K-2)) | PAM1032/KPC-2 Biapenem MPC64 (PAM1032/KPC-2; [9]) | AZT MPC4 SHV-5 ec308 (ec308 (SHV-5) [1]) | PAM1154/KPC-2 Biapenem MPC64 (PAM1154/KPC-2) | TIG MPC4 SHV-5 ec308 (ec308 (SHV-5) [2]) | Ki (KPC-2) | TIG MPC4 CMY-6 EC1010 (EC1010 (CMY-6) [3]) | Ki (CTX-M-14) | TIG MPC4 CTX-M-15 KP1009 (KP1009 (CTX-M-15) [4]) | AZT MPC4 CTX-M-14 KP1005 (KP1005 (CTX-M-14)) | AZT MPC4 TEM-10 ec302 (ec302 (TEM-10) [5]) | AZT MPC4 ECL1002 (ECL1002) | Ki (SHV-12) | AZT MPC4 CTX-M-15 KP1009 (KP1009 (CTX-M-15) [6]) | AZT MPC4 CMY-6 EC1010 (EC1010 (CMY-6) [7]) | TIG MPC4 TEM-10 ec302 (ec302 (TEM-10) [8]) | other results
CSCC(=O)N[C@H]1Cc2cccc(C(=O)O)c2OB1O [Compound 13, (R)-2-hydroxy-3-(2-(methylthio)acetamido)-3,4-dihydro-2H-benzo[e][1,2]oxaborinine-8-carboxylic acid] | X (X = MIC of less than 1 μg/mL) | Y (Y = 10 to 40) | X (X = MIC of less than 1 μg/mL) | X (key: X = Less than 10; Y = 10 to 40; Z Greater than 40) | X (X = MIC of less than 1 μg/mL) | > 10 nM | X (key: X = MIC of less than 1 μg/mL; Y = MIC of 1 μg/mL to 10 μg/mL; Z = MIC of greater than 10 μg/mL) | < 1 nM | X (X = MIC of less than 1 μg/mL) | X (key: X = MIC of less than 1 μg/mL; Y = MIC of 1 μg/mL to 10 μg/mL; Z = MIC of greater than 10 μg/mL) | Y (key: X = MIC of less than 1 μg/mL; Y = MIC of 1 μg/mL to 10 μg/mL; Z = MIC of greater than 10 μg/mL) | X (X = MIC of less than 1 μg/mL) | – | – | – | – | Ki (OXA-48): < 1 nM
CN(C)C(=O)CC(=O)N[C@H]1Cc2cccc(C(=O)O)c2OB1O [Compound 10, (R)-3-(3-(dimethylamino)-3-oxopropanamido)-2-hydroxy-3,4-dihydro-2H-benzo[e][1,2]oxaborinine-8-carboxylic acid] | X (X = MIC of less than 1 μg/mL) | Z (Z Greater than 40) | Y (Y = MIC of 1 μg/mL to 10 μg/mL) | – | Y (Y = MIC of 1 μg/mL to 10 μg/mL) | > 10 nM | X (key: X = MIC of less than 1 μg/mL; Y = MIC of 1 μg/mL to 10 μg/mL; Z = MIC of greater than 10 μg/mL) | – | X (X = MIC of less than 1 μg/mL) | Y (key: X = MIC of less than 1 μg/mL; Y = MIC of 1 μg/mL to 10 μg/mL; Z = MIC of greater than 10 μg/mL) | Y (key: X = MIC of less than 1 μg/mL; Y = MIC of 1 μg/mL to 10 μg/mL; Z = MIC of greater than 10 μg/mL) | Y (Y = MIC of 1 μg/mL to 10 μg/mL) | < 1 nM | X (key: X = MIC of less than 1 μg/mL; Y = MIC of 1 μg/mL to 10 μg/mL; Z = MIC of greater than 10 μg/mL) | X (key: X = MIC of less than 1 μg/mL; Y = MIC of 1 μg/mL to 10 μg/mL; Z = MIC of greater than 10 μg/mL) | – | PAM11154/KPC-2 Biapenem MPC64 (PAM1154/KPC-2; BLI potency to decrease biapenem MIC 64-fold, 32 to 0.5 μg/ml, efflux deficient strain): Y (Y = 10 to 40); TIG MPC4 TEM-10 ec302 (ec302 (TEM-10) [8]; minimum BLI concentration inhibiting growth with 4 μg/mL tigemonam): Z (Z = MIC of greater than 10 μg/mL)
O=C(N[C@H]1Cc2cccc(C(=O)O)c2OB1O)c1cncc(F)c1 [Compound 14, (R)-3-(5-fluoronicotinamido)-2-hydroxy-3,4-dihydro-2H-benzo[e][1,2]oxaborinine-8-carboxylic acid] | Y (Y = MIC of 1 μg/mL to 10 μg/mL) | Z (Z Greater than 40) | Y (Y = MIC of 1 μg/mL to 10 μg/mL) | X (key: X = Less than 10; Y = 10 to 40; Z Greater than 40) | Y (Y = MIC of 1 μg/mL to 10 μg/mL) | > 10 nM | Y (key: X = MIC of less than 1 μg/mL; Y = MIC of 1 μg/mL to 10 μg/mL; Z = MIC of greater than 10 μg/mL) | < 1 nM | Y (Y = MIC of 1 μg/mL to 10 μg/mL) | Y (key: X = MIC of less than 1 μg/mL; Y = MIC of 1 μg/mL to 10 μg/mL; Z = MIC of greater than 10 μg/mL) | Y (key: X = MIC of less than 1 μg/mL; Y = MIC of 1 μg/mL to 10 μg/mL; Z = MIC of greater than 10 μg/mL) | Y (Y = MIC of 1 μg/mL to 10 μg/mL) | < 1 nM | Y (key: X = MIC of less than 1 μg/mL; Y = MIC of 1 μg/mL to 10 μg/mL; Z = MIC of greater than 10 μg/mL) | Y (key: X = MIC of less than 1 μg/mL; Y = MIC of 1 μg/mL to 10 μg/mL; Z = MIC of greater than 10 μg/mL) | Y (key: X = MIC of less than 1 μg/mL; Y = MIC of 1 μg/mL to 10 μg/mL; Z = MIC of greater than 10 μg/mL) | IC50 (CathepsinG): 15 to 500 µM; IC50 (CathepsinA): 15 to 500 µM
NC(=O)N[C@H]1Cc2cccc(C(=O)O)c2OB1O [Compound 6, (R)-2-hydroxy-3-ureido-3,4-dihydro-2H-benzo[e][1,2]oxaborinine-8-carboxylic acid] | X (X = MIC of less than 1 μg/mL) | – | Y (Y = MIC of 1 μg/mL to 10 μg/mL) | X (key: X = Less than 10; Y = 10 to 40; Z Greater than 40) | Z (Z = MIC of greater than 10 μg/mL) | – | X (key: X = MIC of less than 1 μg/mL; Y = MIC of 1 μg/mL to 10 μg/mL; Z = MIC of greater than 10 μg/mL) | 1 to 10 nM | Y (Y = MIC of 1 μg/mL to 10 μg/mL) | Y (key: X = MIC of less than 1 μg/mL; Y = MIC of 1 μg/mL to 10 μg/mL; Z = MIC of greater than 10 μg/mL) | Z (key: X = MIC of less than 1 μg/mL; Y = MIC of 1 μg/mL to 10 μg/mL; Z = MIC of greater than 10 μg/mL) | Z (Z = MIC of greater than 10 μg/mL) | 1 to 10 nM | Y (key: X = MIC of less than 1 μg/mL; Y = MIC of 1 μg/mL to 10 μg/mL; Z = MIC of greater than 10 μg/mL) | Y (key: X = MIC of less than 1 μg/mL; Y = MIC of 1 μg/mL to 10 μg/mL; Z = MIC of greater than 10 μg/mL) | Z (key: X = MIC of less than 1 μg/mL; Y = MIC of 1 μg/mL to 10 μg/mL; Z = MIC of greater than 10 μg/mL) | PAM1032/KPC-2 Biapenem MPC64 (PAM1032/KPC-2): X (key: X = Less than 10; Y = 10 to 40; Z Greater than 40)
